The assay concerns the target T1, human TLR7 (Homo sapiens, UniProt Q9NYK1).
T1 construct: host or cells: HEK293 (HEK-Blue hTLR7)
T1 sequence (Q9NYK1 27-1049): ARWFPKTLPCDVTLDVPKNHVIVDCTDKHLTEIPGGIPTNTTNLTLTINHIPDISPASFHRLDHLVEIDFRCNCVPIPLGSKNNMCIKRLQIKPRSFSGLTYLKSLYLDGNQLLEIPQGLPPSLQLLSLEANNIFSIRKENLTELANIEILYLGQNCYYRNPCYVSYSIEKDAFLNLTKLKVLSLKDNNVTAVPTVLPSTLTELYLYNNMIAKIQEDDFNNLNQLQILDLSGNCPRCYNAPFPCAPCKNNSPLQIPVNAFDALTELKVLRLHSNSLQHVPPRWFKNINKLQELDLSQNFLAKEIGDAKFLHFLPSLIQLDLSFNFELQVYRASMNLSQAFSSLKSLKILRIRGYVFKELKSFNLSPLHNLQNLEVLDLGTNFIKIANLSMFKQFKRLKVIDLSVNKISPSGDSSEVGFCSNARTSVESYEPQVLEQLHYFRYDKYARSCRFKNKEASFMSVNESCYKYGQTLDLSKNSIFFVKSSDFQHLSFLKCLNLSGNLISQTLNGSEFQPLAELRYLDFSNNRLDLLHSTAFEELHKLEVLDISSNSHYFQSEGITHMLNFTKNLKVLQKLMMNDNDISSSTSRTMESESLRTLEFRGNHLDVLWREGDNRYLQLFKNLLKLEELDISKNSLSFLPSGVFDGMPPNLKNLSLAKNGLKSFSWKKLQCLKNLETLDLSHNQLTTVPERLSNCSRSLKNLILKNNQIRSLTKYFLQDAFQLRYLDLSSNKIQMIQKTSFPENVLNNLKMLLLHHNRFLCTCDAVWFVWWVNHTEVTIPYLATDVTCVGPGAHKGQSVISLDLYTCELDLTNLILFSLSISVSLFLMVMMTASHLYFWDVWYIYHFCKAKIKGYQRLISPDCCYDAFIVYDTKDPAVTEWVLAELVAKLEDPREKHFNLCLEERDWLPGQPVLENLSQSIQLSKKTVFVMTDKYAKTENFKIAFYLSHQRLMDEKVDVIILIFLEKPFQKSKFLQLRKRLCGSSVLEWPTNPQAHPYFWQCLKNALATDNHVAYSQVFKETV
Description: HEK293-Blue-hTLR-7 cells assay (SEAP reporter, R848 stimulation). The class given is cell-based. The following applies: HEK293-Blue-hTLR7 cells, R848, 20 hrs; read-out: HEK/hTLR7 IC50. The gist of the method: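 HEK293-Blue-hTLR7 cells (NF-κB/AP-1-driven SEAP reporter) were stimulated with R848 alongside serially diluted compound at 1% final DMSO for 20 h at 37 °C. Supernatant SEAP was then developed with QUANTI-Blue for 2 h at 37 °C and absorbance read at 620–655 nm; antagonism is measured as reduced reporter signal.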
Regarding `C[C@@H]1CN(c2ccc(C#N)c3ncccc23)C[C@H](CN2CCN(c3cccc(N[C@H]4CNC[C@@H]4F)n3)CC2)O1` [Example 35, 5-[(2S,6R)-2-[[4-[6-[[(3S,4S)-4-fluoropyrrolidin-3-yl]amino]-2-pyridyl]piperazin-1-yl]methyl]-6-methyl-morpholin-4-yl]quinoline-8-carbonitrile], the IC50 is 65 nM. To `C[C@@H]1CN(c2ccc(C#N)c3ncccc23)C[C@H](CN2CCN(c3cccc(N4CCC(N)CC4)n3)CC2)O1` [Example 36, 5-[(2S,6R)-2-[[4-[6-(4-amino-1-piperidyl)-2-pyridyl]piperazin-1-yl]methyl]-6-methyl-morpholin-4-yl]quinoline-8-carbonitrile] belongs 28 nM. With `C[C@@H]1CN(c2ccc(C#N)c3ncccc23)C[C@H](CN2CCN(c3cccc(N[C@H]4CNC[C@H]4F)n3)CC2)O1` [Example 37, 5-[(2S,6R)-2-[[4-[6-[[(3S,4R)-4-fluoropyrrolidin-3-yl]amino]-2-pyridyl]piperazin-1-yl]methyl]-6-methyl-morpholin-4-yl]quinoline-8-carbonitrile], the IC50 was 70 nM. On to `C[C@@H]1CN(c2ccc(C#N)c3ncccc23)C[C@H](CN2CCN(c3cccc(N4CC(N)C(F)C4)n3)CC2)O1` (stereo partly drawn) [Example 40, 5-[(2S,6R)-2-[[4-[6-(3-amino-4-fluoro-pyrrolidin-1-yl)-2-pyridyl]piperazin-1-yl]methyl]-6-methyl-morpholin-4-yl]quinoline-8-carbonitrile], for which the IC50 turned out to be 35 nM. For the compound `C[C@@H]1CN(c2ccc(C#N)c3ncccc23)C[C@H](CN2CCN(c3cccc(N4CCNCC(O)C4)n3)CC2)O1` (stereo partly drawn) [Example 41, 5-[(2S,6R)-2-[[4-[6-(6-hydroxy-1,4-diazepan-1-yl)-2-pyridyl]piperazin-1-yl]methyl]-6-methyl-morpholin-4-yl]quinoline-8-carbonitrile], the IC50 was 81 nM. Regarding `CO[C@H]1CN(c2cccc(N3CCN(C[C@H]4CN(c5ccc(C#N)c6ncccc56)C[C@@H](C)O4)CC3)n2)C[C@H]1N` [Example 42, 5-[(2S,6R)-2-[[4-[6-[(3R,4S)-3-amino-4-methoxy-pyrrolidin-1-yl]-2-pyridyl]piperazin-1-yl]methyl]-6-methyl-morpholin-4-yl]quinoline-8-carbonitrile], the IC50 turned out to be 23 nM. To `C[C@@H]1CN(c2ccc(C#N)c3ncccc23)C[C@H](CN2CCN(c3ccc(N4CC(N)C(F)C4)nc3)CC2)O1` (stereo partly drawn) [Example 44, 5-[(2S,6R)-2-[[4-[6-(3-amino-4-fluoro-pyrrolidin-1-yl)-3-pyridyl]piperazin-1-yl]methyl]-6-methyl-morpholin-4-yl]quinoline-8-carbonitrile] belongs 28 nM; to `Cc1nc(N2CCNCC2)nc(N2CCN(C[C@H]3CN(c4ccc(C#N)c5ncccc45)C[C@@H](C)O3)CC2)c1C` [Example 46, 5-[(2S,6R)-2-[[4-(5,6-dimethyl-2-piperazin-1-yl-pyrimidin-4-yl)piperazin-1-yl]methyl]-6-methyl-morpholin-4-yl]quinoline-8-carbonitrile], 18 nM; to `Cc1cc(N2CCN(C[C@H]3CN(c4ccc(C#N)c5ncccc45)C[C@@H](C)O3)CC2)nc(N2CCNCC2)n1` [Example 47, 5-[(2R,6S)-2-methyl-6-[[4-(6-methyl-2-piperazin-1-yl-pyrimidin-4-yl)piperazin-1-yl]methyl]morpholin-4-yl]quinoline-8-carbonitrile], 13 nM. As for `COc1cnc(N2CCNCC2)nc1N1CCN(C[C@H]2CN(c3ccc(C#N)c4ncccc34)C[C@@H](C)O2)CC1` [Example 48, 5-[(2S,6R)-2-[[4-(5-methoxy-2-piperazin-1-yl-pyrimidin-4-yl)piperazin-1-yl]methyl]-6-methyl-morpholin-4-yl]quinoline-8-carbonitrile], the IC50 came out at 9 nM.

On to `C[C@@H]1CN(c2ccc(C#N)c3ncccc23)C[C@H](CN2CCN(c3nc(N4CCNCC4)nc4ccccc34)CC2)O1` [Example 49, 5-[(2R,6S)-2-methyl-6-[[4-(2-piperazin-1-ylquinazolin-4-yl)piperazin-1-yl]methyl]morpholin-4-yl]quinoline-8-carbonitrile], for which the IC50 came to 29 nM. Regarding `C[C@@H]1CN(c2ccc(C#N)c3ncccc23)C[C@H](CN2CCN(c3nc(N4CCNCC4)ncc3C#N)CC2)O1` [Example 50, 5-[(2S,6R)-2-[[4-(5-cyano-2-piperazin-1-yl-pyrimidin-4-yl)piperazin-1-yl]methyl]-6-methyl-morpholin-4-yl]quinoline-8-carbonitrile], the IC50 worked out at 16 nM. Consider `C[C@@H]1CN(c2ccc(C#N)c3ncccc23)C[C@H](CN2CCN(c3ncc(C#N)c(N4CCNCC4)n3)CC2)O1` [Example 51, 5-[(2S,6R)-2-[[4-(5-cyano-4-piperazin-1-yl-pyrimidin-2-yl)piperazin-1-yl]methyl]-6-methyl-morpholin-4-yl]quinoline-8-carbonitrile], for which the IC50 amounted to 28 nM. For `Cc1cc(N2CCN(C[C@H]3CN(c4ccc(C#N)c5ncccc45)C[C@@H](C)O3)CC2)nc(N2C[C@@H](N)[C@@H](F)C2)n1` [Example 55, 5-[(2S,6R)-2-[[4-[2-[(3R,4S)-3-amino-4-fluoro-pyrrolidin-1-yl]-6-methyl-pyrimidin-4-yl]piperazin-1-yl]methyl]-6-methyl-morpholin-4-yl]quinoline-8-carbonitrile], the IC50 was 14 nM. To `Cc1cc(N2CCN(C[C@H]3CN(c4ccc(C#N)c5ncccc45)C[C@@H](C)O3)CC2)nc(N2CCOCC(N)C2)n1` (stereo partly drawn) [Example 56, 5-[(2S,6R)-2-[[4-[2-(6-amino-1,4-oxazepan-4-yl)-6-methyl-pyrimidin-4-yl]piperazin-1-yl]methyl]-6-methyl-morpholin-4-yl]quinoline-8-carbonitrile] belongs 56 nM; to `Cc1cc(N2CCN(C[C@H]3CN(c4ccc(C#N)c5ncccc45)C[C@@H](C)O3)CC2)nc(NC2CNCC2C#N)n1` (stereo partly drawn) [Example 57, 5-[(2S,6R)-2-[[4-[2-[(4-cyanopyrrolidin-3-yl)amino]-6-methyl-pyrimidin-4-yl]piperazin-1-yl]methyl]-6-methyl-morpholin-4-yl]quinoline-8-carbonitrile], 27 nM.

For the compound `Cc1cc(N2CCN(C[C@H]3CN(c4ccc(C#N)c5ncccc45)C[C@@H](C)O3)CC2)nc(N2C[C@@H]3COC[C@@H](C2)N3)n1` [Example 58, 5-[(2R,6S)-2-methyl-6-[[4-[6-methyl-2-[(1R,5R)-3-oxa-7,9-diazabicyclo[3.3.1]nonan-7-yl]pyrimidin-4-yl]piperazin-1-yl]methyl]morpholin-4-yl]quinoline-8-carbonitrile], the IC50 worked out at 30 nM. Turning to `CO[C@H]1CN(c2nc(C)cc(N3CCN(C[C@H]4CN(c5ccc(C#N)c6ncccc56)C[C@@H](C)O4)CC3)n2)C[C@H]1N` [Example 60, 5-[(2R,6S)-2-methyl-6-[[4-[6-methyl-2-[cis-3-amino-4-methoxy-pyrrolidin-1-yl]pyrimidin-4-yl]piperazin-1-yl]methyl]morpholin-4-yl]quinoline-8-carbonitrile], the IC50 came to 11 nM.

For the compound `Cc1cc(N2CCN(C[C@H]3CN(c4ccc(C#N)c5ncccc45)C[C@@H](C)O3)CC2)nc(N2CC3(CNCCO3)C2)n1` [Example 61, 5-[(2R,6S)-2-methyl-6-[[4-[6-methyl-2-(5-oxa-2,8-diazaspiro[3.5]nonan-2-yl)pyrimidin-4-yl]piperazin-1-yl]methyl]morpholin-4-yl]quinoline-8-carbonitrile], the IC50 was 8 nM. For `C[C@@H]1CN(c2ccc(C#N)c3ncccc23)C[C@H](CN2CCN(c3cccc(C4CNCCO4)c3)CC2)O1` (stereo partly drawn) [Example 62, 5-[(2R,6S)-2-methyl-6-[[4-(3-morpholin-2-ylphenyl)piperazin-1-yl]methyl]-morpholin-4-yl]quinoline-8-carbonitrile], the IC50 came out at 18 nM. `Cc1cc(N2CCN(C[C@H]3CN(c4ccc(C#N)c5ncccc45)C[C@@H](C)O3)CC2)nc(N2CC(N)C(F)(F)C2)n1` (stereo partly drawn) [Example 63, 5-[(2S,6R)-2-[[4-[2-(4-amino-3,3-difluoro-pyrrolidin-1-yl)-6-methyl-pyrimidin-4-yl]piperazin-1-yl]methyl]-6-methyl-morpholin-4-yl]quinoline-8-carbonitrile]: the IC50 is 54 nM.

(Values after patent US20210395239A1 (Hoffmann-La Roche Inc., priority 2018, published 2021).)
